Results taken from patent US10201510B2, “Compositions and methods for treatment of neurological symptoms associated with alcohol-withdrawal and for convulsive seizure” (Oregon Health & Science University, priority 2005, dated 2019).

How the values were obtained:
[1] = system: pentylenetetrazole-induced seizures; settings: in vivo; cited from earlier work
[2] = system: withdrawal seizures in alcohol-dependent mice; assay: Predicted anti-seizure activity; format: in vivo, mouse; set-up: key: la = long-acting; The ++ farnesol activity was arbitrary; settings: for Predicted anti-seizure activity: based on effect on L-type Ca^2+ channels, CLogP and reversibility or ADH-FolDH recognition; for Predicted anti-seizure activity: long-acting (la): duration flag in brackets
DBA/2J mice = format: in vivo, mouse
Experimental: experiments were conducted in two mouse strains: Withdrawal Seizure Prone replicate 1 (WSP1); and DBA/2J. WSP1 mice have been selectively bred for their high sensitivity to ethanol and enhanced expression of alcohol withdrawal seizures (Kosobud, 1995; Metten, 1996). DBA/J2 mice also have pronounced alcohol withdrawal symptoms following either chronic treatment or a single injection of a hypnotic dose of alcohol (Crabbe, 1983; Metten, 1994; Crabbe & Metten, in preparation), but are sometimes preferred to the WSP1 mice for the screening of anti-AWS drugs, because of their lower basal level of convulsions (in the absence of alcohol).
DBA/2J mice (males and females; mean BW=23 g; n=44) were injected intra peritoneally (i.p.) with a loading dose of 1.5 g/kg ethanol (20% v/v saline solution) and with 68.1 mg/kg pyrazole hydrochloride, and then placed for 72 h into inhalation chambers (3-4 animals/cage) set at 5 mg ethanol/L air (Guppy, 1995; Crabbe, 1998). The animals were removed from the chambers after 24 and 48 h, and re-injected with pyrazole. The pyrazole injections are necessary to reduce mortality and heterogeneity in withdrawal reactions (Goldstein, 1972). A second group of animals matched for BW and sex (n=32), were housed under normal (‘air-breathing’) conditions and served as pyrazole-injected controls. All animals had free access to food and water and were housed with a 12 hr day-night light cycle. Upon withdrawal from the chambers (t=0), body weight was determined and a tail blood sample was collected for the determination of blood alcohol concentration (BEC, alcohol-treated animals only; Crabbe, 1998). […] Injections were made either 3 hours (GROUP A) or 6 hours (GROUP B) after withdrawal (approximately half of the animals were used in each group). These time points were chosen to precede peak withdrawal (GROUP A at 3 hours) as it begins to ascend above control levels to determine whether farnesol would prevent withdrawal, and to treat withdrawal at its peak (GROUP B at 6 hours). HICs were scored hourly until injections (0 to 3 h for GROUP A and 0 to 6 h for GROUP B). Immediately after HIC scoring at the hour-3 or hour-6 time points, the animals were injected with farnesol or vehicle, and scored 10, 20, 30 and 40 minutes later. The hourly scoring was then resumed at either 4 hours or 7 hours, and continued to the 10-hour time point.

[3] = biological target: T1, R-type Ca^2+ channels (α1E) (Homo sapiens, UniProt Q15878); settings: micromolar concentration; cited from earlier work
T1 construct: host or cells: HEK cells

[4] = biological target: T2, cardiac L-type Ca^2+ channels (α1C) (Homo sapiens, UniProt Q13936); settings: micromolar concentration; cited from earlier work
T2 construct: host or cells: HEK cells

[5] = biological target: T3, N-type Ca^2+ channel (α1B) (Homo sapiens, UniProt Q00975); settings: cited from earlier work
T3 construct: host or cells: HEK cells

WSP1 mice = assay: Acute ethanol withdrawal HIC scoring in WSP1 mice; format: in vivo, mouse
Experimental: experiments were conducted in two mouse strains: […], 1994; Crabbe & […], in preparation), but are sometimes preferred to the WSP1 mice for the screening of anti-AWS drugs, because of their lower basal level of convulsions (in the absence of alcohol). […] Immediately after the hour-7 time point HIC score (a time of maximal withdrawal in this strain), animals were injected with either 200 mg/kg farnesol (suspension in saline containing 3 g/l bovine serum albumin) or vehicle, and scored 8, 16, 24, 32, 40, 48 and 56 minutes later using a scale from 0 to 7 (Crabbe, 1991; scoring scale shown in TABLE 1). The time course was then resumed (animals were scored at hour 8, etc.).

[6] = biological target: T4, voltage-gated L-type Ca^2+ channels (Homo sapiens, UniProt Q13936); settings: cited from earlier work
T4 construct: host or cells: arteries / vascular smooth muscle cells

[7] = biological target: T5, neuronal voltage-gated, L-type (Cav1.3) α1D subunit Ca^2+ channel (Rattus norvegicus, UniProt P27732); settings: PC12 cells; cited from earlier work
T5 construct: KCl-induced intracellular Ca^2+ signaling in non-NGF treated PC12 cells loaded with fura-2; endogenous in cells; host or cells: PC12 cells (non-NGF treated)

[8] = biological target: T5, neuronal voltage-gated, L-type (Cav1.3) α1D subunit Ca^2+ channel; assay: KCl-induced Ca^2+ signaling in fura-2 loaded PC12 cells; format: cell-based
Description: According to particular aspects of the present invention, the alcohol group is essential for activity. Additionally, the activity of farnesol metabolites on neuronal voltage-gated L-type Ca^2+ channels was investigated. […] The Ca^2+ channel activity is expressed as % inhibition of KCl-induced intracellular Ca^2+ signaling in non-NGF differentiated PC12 cells loaded with fura-2 (see Materials and Methods under Example 2). The assayed molecules are: FPP—farnesyl pyrophosphate; FOH—all-trans farnesol; FCHO—all-trans farnesal; and FCOOH—all-trans farnesoic acid (prepared by Dr. McDougal).
(§1) To identify compounds with enhanced L-type Ca^2+ channel blocker activity, several compounds were either purchased or synthesized, and then tested for their ability to inhibit: (1) KCl-induced contraction in isolated arteries; (2) KCl-induced Ca^2+ signaling in fura-2 loaded arteries; and (3) KCl-induced Ca^2+ signaling in fura-2 loaded PC12 cells, all using art-recognized methods established in the applicants' laboratories (Roullet, 1993, 1994, 1995, 1997; De Lima, 1999). Arteries express smooth muscle voltage-gated, L-type (Cav1.2 or α1C subunit) Ca^2+ channels, whereas PC12 cells constitutively express the neuronal voltage-gated, L-type (Cav1.3) α1D subunit (Ertel, 2000).
Ca^2+ channel activity is expressed as % inhibition of KCl-induced intracellular Ca^2+ signaling in non-NGF treated PC12 cells loaded with fura-2.

[9] = biological target: T6, P/Q-type Ca^2+ channels (α1A) (Homo sapiens, UniProt O00555); settings: micromolar concentration; cited from earlier work
T6 construct: host or cells: HEK cells

[10] = biological target: T7, N-type Ca^2+ channel (α1B subunit) (Homo sapiens, UniProt Q00975); assay: Patch-clamp on HEK cells transfected with human α1B (Cav2.2) subunits; format: cell-based; settings: at 5 min; Hp=−100 mV; 20 mM Ba^2+
T7 construct: expressed in transfected cells; host or cells: HEK cells
Experimental: FIGS. 4A and 4B show neuronal (α1D subunit) L-type Ca^2+ channel (Ca^2+ signaling in fura-2 loaded PC12 cells) (FIG. 4A); on neuronal (α1B subunit) N-type Ca^2+ channel (α1B-transfected HEK cells; as in Roullet, 1999) (FIG. 4B). Current-voltage relationship (IV) recording conditions were: holding potential (hp)=−100 mV; 20 mM Ba^2+. Inhibition of N-type currents was ˜90% at 5 min.
Experiments (FIG. 4) using patch-clamp techniques and HEK cells transfected with human α1B (Cav2.2) subunits further indicate that, like farnesol, retinol also blocks N-type calcium channels. FIGS. 4A and 4B show, according to preferred aspects of the present invention, the effect of all-trans retinol on: neuronal (α1D subunit) L-type Ca^2+ channel (Ca^2+ signaling in fura-2 loaded PC12 cells) (FIG. 4A); an on neuronal (α1B subunit) N-type Ca^2+ channel (α1B-transfected HEK cells; as in Roullet, 1999) (FIG. 4B). IV recording conditions were: Hp=−100 mV; 20 mM Ba^2+. Inhibition of N-type currents was ˜90% at 5 min.

ADH = settings: cited from earlier work
L-type Ca^2+ channel = biological target: T8, L-type Ca^2+ channel (Mus musculus, UniProt Q01815); assay: Reversibility of inhibition of L-type Ca^2+ channel mediated arterial contraction after wash-out
T8 construct: KCl-induced contraction in isolated arteries; from tissue; host or cells: mouse mesenteric arteries
T8 sequence (Q01815 whole entry): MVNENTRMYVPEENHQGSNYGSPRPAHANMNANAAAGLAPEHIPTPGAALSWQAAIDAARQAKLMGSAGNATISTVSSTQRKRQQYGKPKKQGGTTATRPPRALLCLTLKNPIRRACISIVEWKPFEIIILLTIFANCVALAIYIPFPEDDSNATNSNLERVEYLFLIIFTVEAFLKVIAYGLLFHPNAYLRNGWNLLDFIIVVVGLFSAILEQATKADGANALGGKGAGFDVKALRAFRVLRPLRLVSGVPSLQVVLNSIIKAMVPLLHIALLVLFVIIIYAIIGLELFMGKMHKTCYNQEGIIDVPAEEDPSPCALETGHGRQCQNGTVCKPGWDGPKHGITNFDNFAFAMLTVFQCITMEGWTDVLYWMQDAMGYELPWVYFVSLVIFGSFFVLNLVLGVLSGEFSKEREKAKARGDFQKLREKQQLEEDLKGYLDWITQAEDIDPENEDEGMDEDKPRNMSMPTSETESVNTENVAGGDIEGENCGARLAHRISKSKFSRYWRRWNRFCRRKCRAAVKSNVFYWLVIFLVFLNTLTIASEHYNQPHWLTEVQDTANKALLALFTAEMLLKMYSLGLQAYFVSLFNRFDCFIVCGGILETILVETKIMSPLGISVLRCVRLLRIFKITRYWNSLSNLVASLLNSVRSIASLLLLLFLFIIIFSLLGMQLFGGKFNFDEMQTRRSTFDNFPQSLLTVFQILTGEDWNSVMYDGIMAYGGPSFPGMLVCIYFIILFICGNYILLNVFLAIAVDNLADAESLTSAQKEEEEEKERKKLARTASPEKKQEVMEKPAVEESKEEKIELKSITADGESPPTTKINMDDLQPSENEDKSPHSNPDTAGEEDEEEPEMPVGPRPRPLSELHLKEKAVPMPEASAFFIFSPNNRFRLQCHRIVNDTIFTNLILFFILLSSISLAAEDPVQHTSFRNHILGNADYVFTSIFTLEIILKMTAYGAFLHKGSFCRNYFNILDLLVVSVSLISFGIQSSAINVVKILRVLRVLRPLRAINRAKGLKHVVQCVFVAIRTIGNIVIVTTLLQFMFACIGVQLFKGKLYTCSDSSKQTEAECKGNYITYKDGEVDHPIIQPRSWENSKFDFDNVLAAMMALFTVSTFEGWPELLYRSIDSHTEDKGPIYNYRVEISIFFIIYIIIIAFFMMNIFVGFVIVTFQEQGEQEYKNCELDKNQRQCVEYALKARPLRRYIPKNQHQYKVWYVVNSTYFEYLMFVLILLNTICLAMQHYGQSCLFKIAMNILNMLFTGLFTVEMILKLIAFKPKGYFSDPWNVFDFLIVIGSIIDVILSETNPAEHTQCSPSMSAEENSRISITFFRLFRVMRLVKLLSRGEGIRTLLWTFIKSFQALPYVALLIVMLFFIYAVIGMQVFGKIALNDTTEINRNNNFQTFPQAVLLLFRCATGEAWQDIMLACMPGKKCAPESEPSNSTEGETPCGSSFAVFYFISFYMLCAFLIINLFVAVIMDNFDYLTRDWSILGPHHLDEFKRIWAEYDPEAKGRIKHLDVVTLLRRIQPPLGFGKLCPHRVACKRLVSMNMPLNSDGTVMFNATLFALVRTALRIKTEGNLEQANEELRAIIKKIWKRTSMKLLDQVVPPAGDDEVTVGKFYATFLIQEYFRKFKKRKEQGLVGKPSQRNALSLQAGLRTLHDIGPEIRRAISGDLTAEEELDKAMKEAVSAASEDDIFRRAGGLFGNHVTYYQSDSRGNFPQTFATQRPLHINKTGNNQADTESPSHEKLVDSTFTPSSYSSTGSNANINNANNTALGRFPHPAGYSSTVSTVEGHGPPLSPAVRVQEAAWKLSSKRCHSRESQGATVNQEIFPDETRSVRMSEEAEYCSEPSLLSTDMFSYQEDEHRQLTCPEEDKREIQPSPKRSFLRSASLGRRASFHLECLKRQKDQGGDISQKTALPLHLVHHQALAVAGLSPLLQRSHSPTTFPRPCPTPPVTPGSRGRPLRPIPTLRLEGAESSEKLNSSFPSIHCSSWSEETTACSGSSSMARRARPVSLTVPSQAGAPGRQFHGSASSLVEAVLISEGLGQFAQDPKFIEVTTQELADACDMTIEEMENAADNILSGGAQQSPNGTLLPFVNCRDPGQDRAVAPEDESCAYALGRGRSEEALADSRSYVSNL
T8 sequence (P54285 whole entry partner): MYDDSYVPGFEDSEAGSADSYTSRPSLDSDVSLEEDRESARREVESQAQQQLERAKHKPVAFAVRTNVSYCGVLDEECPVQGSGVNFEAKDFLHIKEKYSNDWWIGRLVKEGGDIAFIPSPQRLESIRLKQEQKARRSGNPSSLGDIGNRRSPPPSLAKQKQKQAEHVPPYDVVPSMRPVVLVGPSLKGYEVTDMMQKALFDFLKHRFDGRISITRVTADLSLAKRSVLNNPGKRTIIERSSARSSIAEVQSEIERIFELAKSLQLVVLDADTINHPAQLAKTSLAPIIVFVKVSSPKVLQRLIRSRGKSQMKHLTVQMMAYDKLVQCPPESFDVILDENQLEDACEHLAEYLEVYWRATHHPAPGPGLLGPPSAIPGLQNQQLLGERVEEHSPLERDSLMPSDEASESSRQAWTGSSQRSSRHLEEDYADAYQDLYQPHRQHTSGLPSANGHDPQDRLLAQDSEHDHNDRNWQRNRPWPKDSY
T8 sequence (O08532 25-956 partner limits assumed): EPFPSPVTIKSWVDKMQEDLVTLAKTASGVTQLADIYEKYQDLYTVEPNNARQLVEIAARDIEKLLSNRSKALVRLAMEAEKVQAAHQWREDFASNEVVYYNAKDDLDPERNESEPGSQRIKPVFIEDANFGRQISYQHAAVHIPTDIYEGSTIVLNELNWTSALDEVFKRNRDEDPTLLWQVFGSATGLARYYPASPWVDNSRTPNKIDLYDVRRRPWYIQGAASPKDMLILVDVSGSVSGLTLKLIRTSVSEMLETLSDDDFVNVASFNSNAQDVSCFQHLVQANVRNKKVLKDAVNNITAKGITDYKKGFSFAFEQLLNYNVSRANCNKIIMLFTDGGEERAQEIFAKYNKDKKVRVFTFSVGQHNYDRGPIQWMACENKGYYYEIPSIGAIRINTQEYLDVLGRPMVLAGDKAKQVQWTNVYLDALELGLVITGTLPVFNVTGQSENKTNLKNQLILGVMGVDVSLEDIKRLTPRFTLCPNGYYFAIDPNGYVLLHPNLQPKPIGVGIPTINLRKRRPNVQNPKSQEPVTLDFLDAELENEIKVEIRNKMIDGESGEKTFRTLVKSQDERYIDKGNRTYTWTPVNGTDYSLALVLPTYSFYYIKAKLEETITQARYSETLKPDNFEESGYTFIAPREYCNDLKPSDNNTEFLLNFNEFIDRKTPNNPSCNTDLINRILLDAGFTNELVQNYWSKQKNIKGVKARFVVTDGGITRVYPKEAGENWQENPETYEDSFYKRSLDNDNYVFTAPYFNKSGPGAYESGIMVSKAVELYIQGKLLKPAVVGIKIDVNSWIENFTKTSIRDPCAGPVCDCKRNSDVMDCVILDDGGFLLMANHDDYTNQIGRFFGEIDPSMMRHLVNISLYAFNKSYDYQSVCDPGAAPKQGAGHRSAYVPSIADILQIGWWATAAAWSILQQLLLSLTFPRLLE
T8 sequence (O08532 957-1103 partner limits assumed): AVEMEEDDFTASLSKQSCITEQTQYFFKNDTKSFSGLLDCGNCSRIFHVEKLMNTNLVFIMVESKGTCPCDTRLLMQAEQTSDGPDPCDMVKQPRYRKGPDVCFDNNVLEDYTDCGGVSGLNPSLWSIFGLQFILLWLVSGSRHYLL
Experimental: (§2) Contractions obtained after 30 min. incubation with the test compounds (left portion of graph), and after a 60-min. wash-out (right portion of graph).
(§3) Moreover, farnesylamine is likely to be metabolized through pathways different from those involved in farnesol clearance.

[11] = biological target: T9, human recombinant monoamine oxidase A (Homo sapiens, UniProt P21397); assay: Monoamine oxidase substrate test; format: in vitro ADME; settings: rat liver mitochondrial membranes and human recombinant monoamine oxidase A and B
T9 sequence (P21397 1-527): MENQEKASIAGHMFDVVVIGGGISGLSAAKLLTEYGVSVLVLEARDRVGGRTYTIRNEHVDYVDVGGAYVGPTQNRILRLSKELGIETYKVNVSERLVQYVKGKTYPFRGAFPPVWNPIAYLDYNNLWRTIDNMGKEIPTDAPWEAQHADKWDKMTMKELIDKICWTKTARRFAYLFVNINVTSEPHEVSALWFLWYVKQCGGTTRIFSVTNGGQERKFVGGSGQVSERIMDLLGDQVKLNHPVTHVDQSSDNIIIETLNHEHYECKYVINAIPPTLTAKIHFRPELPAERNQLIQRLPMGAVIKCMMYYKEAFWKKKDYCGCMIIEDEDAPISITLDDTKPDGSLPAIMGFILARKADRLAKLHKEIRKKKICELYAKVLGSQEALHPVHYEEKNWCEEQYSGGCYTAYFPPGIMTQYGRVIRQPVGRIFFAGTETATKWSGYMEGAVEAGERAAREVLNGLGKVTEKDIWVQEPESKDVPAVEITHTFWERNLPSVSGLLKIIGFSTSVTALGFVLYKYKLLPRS
Description: as §3

[12] = biological target: T10, smooth muscle voltage-gated, L-type (Cav1.2 or α1C subunit) Ca^2+ channels (Mus musculus, UniProt Q01815); assay: KCl-induced contraction in isolated arteries; settings: FIG. 5 / FIG. 6 (25 μM)
T10 construct: KCl-induced contraction in isolated arteries; from tissue; host or cells: mouse mesenteric arteries
T10 sequence (Q01815 whole entry): as the sequence (Q01815 whole entry) above
T10 sequence (P54285 whole entry partner): as the sequence (P54285 whole entry partner) above
T10 sequence (O08532 25-956 partner limits assumed): as the sequence (O08532 25-956 partner limits assumed) above
T10 sequence (O08532 957-1103 partner limits assumed): as the sequence (O08532 957-1103 partner limits assumed) above
Experimental: as §2, §1

Question: What does the source list for `CC(C)=CCC/C(C)=C/CC/C(C)=C/CO` [All-trans farnesol, (2E,6E)-3,7,11-trimethyldodeca-2,6,10-trien-1-ol]?
Answer: prevention of pentylenetetrazole-induced seizures [1]: not prevent; Predicted anti-seizure activity [2]: ++; Percent seizure reduction, GROUP A (DBA/2J mice; 300 mg/kg i.p., injected 3 hours after withdrawal): 99%; Percent seizure reduction, GROUP B (DBA/2J mice; 300 mg/kg i.p., injected 6 hours after withdrawal): 78%; effect on HIC scores in ‘air-breathing’ animals (DBA/2J mice; 300 mg/kg i.p., pyrazole-injected controls): no significant effect; effect on HICs in withdrawing animals, 50 mg/kg (DBA/2J mice; at 50 mg/kg, worded "Preferably"): no effect; effect on HICs in withdrawing animals, 300 mg/kg (DBA/2J mice; dose of 300 mg/kg): suppresses almost completely; death after injections (DBA/2J mice; mouse, in vivo): No death; duration of the farnesol effect (DBA/2J mice; mouse, in vivo): approximately 1 hour; toxicity of the dose inducing complete seizure suppression (DBA/2J mice; mouse, in vivo): non toxic; activity on R-type Ca^2+ channels [3]: inactive; activity on cardiac L-type Ca^2+ channels [4]: inhibits; block of the N-type channel ([5]; at 250 nM farnesol, typical neuronal resting membrane potential): ~50%; activity on N-type Ca^2+ channels ([5]; micromolar concentration): inhibits; reduction in peak ethanol withdrawal (WSP1 mice; 200 mg/kg): ~56%; peak withdrawal effect (HIC score) (WSP1 mice; 200 mg/kg after hour 7, average of 24, 32 and 40 minute scores, scale 0 to 7): 2.67±0.29; time point of maximum effect (WSP1 mice; 200 mg/kg, after injection at hour 7): 32 min; effect on basal HICs in naïve WSP1 mice (WSP1 mice; 200 mg/kg, preliminary experiments): tended to reduce basal HICs; IC50 ([6]; reversible and dose-dependent, read-out: IC50, effect on arteries): ~2 µM; activity on neuronal L-type Ca^2+ channels (literature / prior studies) [7]: inhibits; block of KCl-induced Ca^2+ signaling ([8]; PC12 cells in culture, n=3/group, FIG. 3): 65%; activity on P/Q-type Ca^2+ channels [9]: inactive

Question: Which “Inhibition of N-type currents” value [10] does the source give for `CC1=C(/C=C/C(C)=C/C=C/C(C)=C/CO)C(C)(C)CCC1` [Retinol, (2E,4E,6E,8E)-3,7-dimethyl-9-(2,6,6-trimethylcyclohex-1-enyl)nona-2,4,6,8-tetraen-1-ol] here?
Answer: The value was ~90%.

Question: And the Predicted anti-seizure activity [2]?
Answer: The Predicted anti-seizure activity was “++”.

Question: What about the “Predicted anti-seizure activity: long-acting (la)” value [2] of the same compound?
Answer: The value was “la”.

Question: And the “metabolism by class IV ADH” value (ADH)?
Answer: The value was “metabolized by class IV ADH”.

Question: What about the “reversibility of effect compared with farnesol” value (L-type Ca^2+ channel) of the same compound?
Answer: Its value is “significantly less reversible”.

Question: And the “activity on Ca^2+ channels / smooth muscle L-type channels (literature / prior studies)” value [6]?
Answer: The value was “blocks efficiently”.

Question: What about the “activity on neuronal L-type Ca^2+ channels (literature / prior studies)” value [7] of the same compound?
Answer: The value was “blocks efficiently”.

Question: And the IC50 ([8]; read-out: IC50 on L-type Ca^2+ channels)?
Answer: The IC50 was 5 µM.

Question: What does the source list for `CC(C)=CCC/C(C)=C/CC/C(C)=C/CN` [Farnesylamine, (2E,6E)-3,7,11-trimethyldodeca-2,6,10-trien-1-amine]?
Answer: Predicted anti-seizure activity: long-acting (la) [2]: la; substrate for monoamine oxidase [11]: specific substrate for monoamine oxidase A; reversibility of effect compared with farnesol (L-type Ca^2+ channel): relatively less reversible; inhibition at 25 µM (L-type Ca^2+ channel; 25 μM, 30 min incubation, 60-min. wash-out, read-out: inhibition of arterial contraction still observed after wash-out): ~80%; activity on KCl-induced arterial contraction [12]: more potent inhibitor of arterial contractions than farnesol
